Measurements taken from paper PMC12645437, “Orthogonal IMiD-Degron Pairs Induce Selective Protein Degradation in Cells” (ACS Chemical Biology, 2025).
Several values for one entry are separate records, joined by “and”; a condition that tells them apart may be missing. Equal values may be shown once. Read-outs that look alike come from different tables or passages of the source.

How the values were obtained:
MM.1S cells = test: TMTpro quantitative proteomics, 16 h; conditions: 1 μM
Description: (§1) Quantitative proteomics screens were carried out in untransduced Jurkat cells, embryonic stem cells (ESCs), and the multiple myeloma cell line, MM.1S. We used Jurkat cells, as our work up to this point had employed this cell line, and we selected ESCs and MM.1S cells as they express known CRBN neosubstrates, including IKZF1, IKZF3, RAB28, RNF166, SALL4, ZFP91, and ZNF827.
(§2) Proteomics - cell lysis and protein digestion
(§3) The viability of Jurkat cells was tested after 16-h treatment with corresponding chemicals
viable cells in each condition. Next, ~10^7 cells per condition were collected by centrifugation (1000 rpm), washed twice with ice-cold PBS, and lysed in RIPA buffer [50 mM HEPES pH 7.4, 150 mM NaCl, 1% sodium deoxycholate, 1% NP-40, 0.1% SDS, 10 mM sodium pyrophosphate, 10 mM β-glycerophosphate, 2.5 mM MgCl2, 200 µM TCEP, phosphatase and protease inhibitor cocktail (in-house)], to produce whole cell extracts. Whole-cell extracts were sonicated, and protein concentrations were determined using the Bradford assay. Protein extracts (100 µg) were subjected to disulfide bond reduction with 5 mM TCEP (10 min) and alkylation with 25 mM chloroacetamide (20 min). Methanol–chloroform precipitation was performed prior to protease digestion. […]

[1] = target: T1, endogenous IKZF3 in Jurkat cells (Homo sapiens, UniProt Q96SW2+Q9UKT9); test: Western blot for endogenous IKZF3; type: cell-based
T1 construct: endogenous in cells; host or cells: Jurkat (transduced with ZF-EGFP constructs, or untransduced)
T1 sequence (Q9UKT9 whole entry): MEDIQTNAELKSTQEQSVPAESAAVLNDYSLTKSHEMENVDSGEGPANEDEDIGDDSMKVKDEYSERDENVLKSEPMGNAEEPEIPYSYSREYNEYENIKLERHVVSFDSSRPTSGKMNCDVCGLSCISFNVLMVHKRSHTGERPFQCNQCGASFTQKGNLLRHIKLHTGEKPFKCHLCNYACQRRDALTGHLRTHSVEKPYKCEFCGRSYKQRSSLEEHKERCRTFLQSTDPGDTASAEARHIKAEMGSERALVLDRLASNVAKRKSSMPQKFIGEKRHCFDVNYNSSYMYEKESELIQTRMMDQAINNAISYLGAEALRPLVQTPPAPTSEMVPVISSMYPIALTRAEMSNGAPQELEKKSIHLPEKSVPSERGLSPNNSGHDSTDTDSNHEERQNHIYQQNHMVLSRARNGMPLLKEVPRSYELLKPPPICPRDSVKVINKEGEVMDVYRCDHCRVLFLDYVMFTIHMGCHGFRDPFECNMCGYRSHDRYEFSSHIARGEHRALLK
T1 sequence (Q96SW2 whole entry): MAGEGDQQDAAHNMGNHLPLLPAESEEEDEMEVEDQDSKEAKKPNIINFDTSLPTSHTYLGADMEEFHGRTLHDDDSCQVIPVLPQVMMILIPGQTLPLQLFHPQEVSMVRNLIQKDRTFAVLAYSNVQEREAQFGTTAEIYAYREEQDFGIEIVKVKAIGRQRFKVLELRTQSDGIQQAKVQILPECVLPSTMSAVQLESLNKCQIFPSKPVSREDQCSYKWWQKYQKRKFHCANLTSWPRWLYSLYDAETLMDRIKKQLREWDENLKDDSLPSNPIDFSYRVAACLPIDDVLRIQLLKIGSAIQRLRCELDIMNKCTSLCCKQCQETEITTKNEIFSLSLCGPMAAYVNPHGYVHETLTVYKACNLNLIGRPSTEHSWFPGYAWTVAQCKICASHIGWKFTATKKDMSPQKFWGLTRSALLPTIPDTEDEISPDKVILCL
T1 sequence (Q16531 whole entry partner): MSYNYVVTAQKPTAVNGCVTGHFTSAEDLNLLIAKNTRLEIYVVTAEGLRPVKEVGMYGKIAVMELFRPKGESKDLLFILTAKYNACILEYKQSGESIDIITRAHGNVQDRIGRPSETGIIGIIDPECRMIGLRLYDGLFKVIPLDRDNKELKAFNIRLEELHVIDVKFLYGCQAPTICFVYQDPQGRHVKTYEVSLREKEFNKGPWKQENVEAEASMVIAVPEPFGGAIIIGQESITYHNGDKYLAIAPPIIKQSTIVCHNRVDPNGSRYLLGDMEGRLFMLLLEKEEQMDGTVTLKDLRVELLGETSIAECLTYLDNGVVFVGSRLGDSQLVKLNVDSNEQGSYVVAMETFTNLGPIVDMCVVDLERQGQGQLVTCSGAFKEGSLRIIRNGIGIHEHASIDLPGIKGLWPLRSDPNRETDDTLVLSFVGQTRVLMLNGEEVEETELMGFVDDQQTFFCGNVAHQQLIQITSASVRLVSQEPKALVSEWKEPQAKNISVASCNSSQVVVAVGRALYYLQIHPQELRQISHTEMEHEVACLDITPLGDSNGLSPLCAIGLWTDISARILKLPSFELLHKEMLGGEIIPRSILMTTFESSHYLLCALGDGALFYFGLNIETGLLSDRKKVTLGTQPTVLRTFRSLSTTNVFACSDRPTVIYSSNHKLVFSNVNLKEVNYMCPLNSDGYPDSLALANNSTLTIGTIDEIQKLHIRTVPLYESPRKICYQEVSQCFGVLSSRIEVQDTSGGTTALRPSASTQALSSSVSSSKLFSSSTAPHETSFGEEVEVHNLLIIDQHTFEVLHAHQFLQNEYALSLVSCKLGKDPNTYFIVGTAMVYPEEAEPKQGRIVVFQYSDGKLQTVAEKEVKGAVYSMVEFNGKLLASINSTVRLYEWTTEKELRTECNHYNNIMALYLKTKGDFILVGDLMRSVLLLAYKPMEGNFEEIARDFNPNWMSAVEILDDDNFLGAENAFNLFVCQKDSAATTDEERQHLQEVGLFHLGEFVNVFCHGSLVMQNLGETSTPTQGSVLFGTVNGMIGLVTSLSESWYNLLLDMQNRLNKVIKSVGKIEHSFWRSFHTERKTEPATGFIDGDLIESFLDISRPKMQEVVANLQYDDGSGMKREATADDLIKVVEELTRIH

Jurkat cells = test: TMTpro quantitative proteomics, 16 h; conditions: Jurkat whole cell extracts, TMTpro SPS-MS3
Description: as §1, §2, §3
viable cells in each condition. Next, ~10^7 cells per condition were collected by centrifugation (1000 rpm), washed twice with ice-cold PBS, and lysed in RIPA buffer [50 mM HEPES pH 7.4, 150 mM NaCl, 1% sodium deoxycholate, 1% NP-40, 0.1% SDS, 10 mM sodium pyrophosphate, 10 mM β-glycerophosphate, 2.5 mM MgCl2, 200 µM TCEP, phosphatase and protease inhibitor cocktail (in-house)], to produce whole cell extracts. Whole-cell extracts were sonicated, and protein concentrations were determined using the Bradford assay. Protein extracts (100 µg) were subjected to disulfide bond reduction with 5 mM TCEP (10 min) and alkylation with 25 mM chloroacetamide (20 min). Methanol–chloroform precipitation was performed prior to protease digestion. In brief, four parts of neat methanol were added to each sample and vortexed, one part chloroform was added to the sample and vortexed, and finally, three parts water was added to the sample and vortexed. The sample was centrifuged at 8000 rpm for 5 min at room temperature and subsequently washed twice with 100% methanol. Samples were resuspended in 100 mM EPPS pH8.5 containing
0.1% RapiGest and digested at 37 °C for 6 h with trypsin at a 100:1 protein-to-protease ratio.
Samples were then subjected to TMTpro
labeling. The preparation of MM1S cell extracts was conducted using the same procedure as for
Jurkat cells. ESC cells were plated onto 6 cm dishes 24 hours prior to the chemical treatment.
Following the chemical treatment, the cells on the dish were washed with DPBS four times, after
which RIPA buffer was added directly to the dish, and the lysate was collected using a scraper.
The whole cell lysates were then processed similarly to the Jurkat cell lysates.
Proteomics - Tandem mass tag labeling
Proline-based reporter isobaric Tandem Mass Tag (TMTpro) labeling of dried peptide samples
resuspended in 100 mM EPPS pH 8.5, was carried out as follows. TMTpro reagent was added to
samples (100 µg peptide), along with acetonitrile, to achieve a final acetonitrile concentration of
approximately 30% (v/v). Following incubation at room temperature for 1 h, the labeling efficiency
of a small aliquot was tested. The reaction was then quenched with hydroxylamine to a final
concentration of 0.5% (v/v) for 15 min. The TMTpro-labeled samples were pooled together at a
1:1 ratio. The sample was vacuum centrifuged to near dryness and subjected to C18 solid-phase
The dried TMTpro-labeled sample was resuspended in 100 μL of 10 mM NH4HCO3 pH 8.0 and
fractionated using basic pH reverse phase HPLC 40. Briefly, samples were offline fractionated over
a 90 min run, into 96 fractions by high pH reverse-phase HPLC (Agilent LC1260) through an aeris
peptide xb-c18 column (Phenomenex; 250 mm × 3.6 mm) for total proteome with mobile phase A
containing 5% acetonitrile and 10 mM NH4HCO3, and mobile phase B containing 90% acetonitrile

[2] = target: T2, Q147A mutant degron (ANQS) fused to EGFP (Homo sapiens, UniProt Q96SW2+Q9UKT9, Q147A); test: Ratiometric EGFP:mCherry flow cytometry degradation assay, 18 h; type: cell-based; conditions: Jurkat, read-out: DMax Q147A/%
T2 construct: pLVX-Sprout-IKZF3 130-189aa Q147A (ANQS); expressed in transfected cells
T2 sequence (Q9UKT9 130-189 Q147A): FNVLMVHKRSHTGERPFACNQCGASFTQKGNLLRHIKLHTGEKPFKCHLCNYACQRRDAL
T2 sequence (Q96SW2 whole entry, the tested form may be a part): as the sequence (Q96SW2 whole entry) above
T2 sequence (Q16531 whole entry partner, the tested form may be a part): as the sequence (Q16531 whole entry partner) above

[3] = target: T3, ZF-EGFP fusion protein with the HEIP, AEVK, WEIS, or WT ZF degron (Homo sapiens, UniProt Q9UKT9); test: Western blot for ZF-EGFP fusion protein; type: cell-based
T3 construct: The degron spans residues 130–189 of IKZF3; expressed in transfected cells; host or cells: Jurkat, lentivirally transduced, presorted mCherry+
T3 sequence (Q96SW2 whole entry, the tested form may be a part): as the sequence (Q96SW2 whole entry) above
T3 sequence (Q9UKT9 130-189): as the sequence (Q9UKT9 130-189 Q147A) above, with A18Q counted along it
T3 sequence (Q16531 2-1140, further chain): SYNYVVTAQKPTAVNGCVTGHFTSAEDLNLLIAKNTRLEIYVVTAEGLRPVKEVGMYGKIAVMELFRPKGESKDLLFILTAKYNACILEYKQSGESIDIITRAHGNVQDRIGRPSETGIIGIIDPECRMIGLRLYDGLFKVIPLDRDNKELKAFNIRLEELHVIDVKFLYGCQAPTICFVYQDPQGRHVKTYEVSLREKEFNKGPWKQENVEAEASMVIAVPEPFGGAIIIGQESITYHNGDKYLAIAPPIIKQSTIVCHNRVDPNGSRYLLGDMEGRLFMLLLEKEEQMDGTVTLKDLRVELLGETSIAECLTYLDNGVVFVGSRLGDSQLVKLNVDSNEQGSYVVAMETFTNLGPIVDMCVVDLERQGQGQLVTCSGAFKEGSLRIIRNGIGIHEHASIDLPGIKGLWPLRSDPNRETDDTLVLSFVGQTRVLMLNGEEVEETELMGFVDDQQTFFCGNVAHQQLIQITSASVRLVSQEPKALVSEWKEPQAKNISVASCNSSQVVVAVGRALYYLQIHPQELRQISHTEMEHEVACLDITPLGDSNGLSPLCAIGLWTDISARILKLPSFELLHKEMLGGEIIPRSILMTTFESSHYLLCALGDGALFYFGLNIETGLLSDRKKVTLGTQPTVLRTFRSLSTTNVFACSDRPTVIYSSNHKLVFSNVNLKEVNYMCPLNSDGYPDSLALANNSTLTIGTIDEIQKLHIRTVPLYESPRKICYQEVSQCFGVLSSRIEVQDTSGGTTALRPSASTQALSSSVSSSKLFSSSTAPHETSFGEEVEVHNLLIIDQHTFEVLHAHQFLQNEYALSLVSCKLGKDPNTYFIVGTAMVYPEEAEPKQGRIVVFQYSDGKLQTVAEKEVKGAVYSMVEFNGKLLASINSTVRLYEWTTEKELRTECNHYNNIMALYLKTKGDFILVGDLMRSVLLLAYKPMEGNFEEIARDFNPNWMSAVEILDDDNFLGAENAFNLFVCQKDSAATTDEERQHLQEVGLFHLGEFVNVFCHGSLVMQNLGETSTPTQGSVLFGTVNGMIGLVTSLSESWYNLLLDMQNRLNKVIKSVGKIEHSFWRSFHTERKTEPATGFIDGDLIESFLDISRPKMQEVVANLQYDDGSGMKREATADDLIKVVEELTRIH

[4] = test system: library of 8380 IKZF3 degrons fused to EGFP in Jurkat cells; test: Pooled mutant ZF degron library screen (FACS EGFPlow vs EGFP+, NGS), 18 h; type: cell-based, human;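 as to logFC: Log2 fold change of EGFPlow over EGFP+ representation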
[5] = target: T4, endogenous IKZF1 in Jurkat cells (Homo sapiens, UniProt Q13422+Q96SW2); test: Endogenous IKZF1 immunostaining, fluorescent antibody flow cytometry assay; type: cell-based; conditions: 18 h
T4 construct: endogenous in cells; host or cells: Jurkat (untransduced for immunostaining; WEIS-EGFP-transduced for the blot)
T4 sequence (Q13422 whole entry): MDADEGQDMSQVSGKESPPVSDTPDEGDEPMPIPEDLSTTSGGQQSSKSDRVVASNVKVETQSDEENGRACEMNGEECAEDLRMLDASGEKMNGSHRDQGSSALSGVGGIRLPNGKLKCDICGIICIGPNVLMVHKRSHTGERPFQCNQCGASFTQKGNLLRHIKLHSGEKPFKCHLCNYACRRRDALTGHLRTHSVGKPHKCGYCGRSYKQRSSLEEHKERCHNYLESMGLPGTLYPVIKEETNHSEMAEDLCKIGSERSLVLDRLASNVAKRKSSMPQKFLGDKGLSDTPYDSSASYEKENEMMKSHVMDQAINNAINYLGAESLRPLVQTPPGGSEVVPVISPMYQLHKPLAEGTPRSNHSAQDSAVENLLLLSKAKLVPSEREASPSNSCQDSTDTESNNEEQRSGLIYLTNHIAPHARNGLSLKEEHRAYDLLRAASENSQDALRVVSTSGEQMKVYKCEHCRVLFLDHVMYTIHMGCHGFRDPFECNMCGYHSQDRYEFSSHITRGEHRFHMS
T4 sequence (Q96SW2 whole entry): as the sequence (Q96SW2 whole entry) above
T4 sequence (Q16531 whole entry partner): as the sequence (Q16531 whole entry partner) above
Description: As we sought to screen a large number of mutant ZF degrons with different mutation combinations, we pursued a library screen approach similar to that previously employed by Sievers et al. and Jan et al. , Only the most promising compounds from the original set of 36 were used for the library screen. To help narrow the candidates, a subset of compounds was tested for endogenous IKZF1 degradation in Jurkat cells using a fluorescent antibody flow cytometry assay (Figure S5). […] Thalidomide and lenalidomide were also included as controls.
Endogenous IKZF1 Immunostaining
37 °C and 5% CO2. Following incubation, cells were stained with LIVE/DEAD™ Fixable Aqua Dead Cell Stain (Thermo) diluted 1000X in PBS for 30 min at room temperature and then incubated with Human TruStain FcX block (Biolegend) diluted 40X in PBS + 1% FBS (Gibco) for 10 min at room temperature. Intranuclear staining of IKZF1 was carried out using the Transcription Factor Buffer Set (BD Bioscience) according to the manufacturer's protocol and staining with IKZF1 AF488 antibody (clone R32-1149, BD Bioscience) diluted 40X for 30 minutes at room temperature. Cells were acquired on a Cytoflex S (Beckman Coulter) and data analysed using FlowJo 10.8.1 9 (BD).

[6] = protein AADAT isoform 2 (Q8N5Z0-2)
[7] = WT degron, residues 146/147/149/150/152/153/154/155/167: FQNQGASFL
[8] = degron residues 146/147/149/150/152/153/154/155/167: FADIGAAFL
[9] = degron residues 146/147/149/150/152/153/154/155/167: FADIGACFL
[10] = degron residues 146/147/149/150/152/153/154/155/167: FADIGADFL
[11] = degron residues 146/147/149/150/152/153/154/155/167: FADIGAEFL
[12] = degron residues 146/147/149/150/152/153/154/155/167: FREIGAPFL
[13] = degron residues 146/147/149/150/152/153/154/155/167: FYEVGACFL

Nc1cccc2c1C(=O)N(C1CCC(=O)NC1=O)C2=O (centres unmarked) [Compound 2, pomalidomide]
proteins significantly degraded (quantitative proteomics) (MM.1S cells): IKZF1, IKZF3, and at least 6 other proteins were significantly degraded
degradation of endogenous IKZF3 (Western blot) [1]: did cause IKZF3 degradation
endogenous IKZF3 levels (Western blot) [1]: depleted endogenous IKZF3
Scaled value (to 150), replicate 01 (Jurkat cells; protein A2M (P01023)): 7.144
Scaled value (to 150), replicate 02 (Jurkat cells; protein A2M (P01023)): 8.281
Scaled value (to 150), replicate 03 (Jurkat cells; protein A2M (P01023)): 7.913
Scaled value (to 150), replicate 01 (Jurkat cells; protein AAAS (Q9NRG9)): 9.781
Scaled value (to 150), replicate 02 (Jurkat cells; protein AAAS (Q9NRG9)): 9.111
Scaled value (to 150), replicate 03 (Jurkat cells; protein AAAS (Q9NRG9)): 9.328
Scaled value (to 150), replicate 01 (Jurkat cells; protein AACS (Q86V21)): 9.6081
Scaled value (to 150), replicate 02 (Jurkat cells; protein AACS (Q86V21)): 10.2184
Scaled value (to 150), replicate 03 (Jurkat cells; protein AACS (Q86V21)): 9.9438
Scaled value (to 150), replicate 01 (Jurkat cells; [6]): 9.467
Scaled value (to 150), replicate 02 (Jurkat cells; [6]): 10.1133
Scaled value (to 150), replicate 03 (Jurkat cells; [6]): 9.458
Dmax [2]: 94%
degradation of WT degron-tagged EGFP (Western blot) [3]: induced degradation of EGFP

O=C1CCC(N2C(=O)c3ccc(N4CCOCC4)cc3C2=O)C(=O)N1 (centres unmarked) [Compound 22]
Log2FC [4, 7]: -1.0370
logFC [4, 8]: 2.037
logFC [4, 9]: 0.5955
logFC [4, 10]: -1.619
logFC [4, 11]: -0.4533
Log2FC ([4]; degron residues 146/147/149/150/152/153/154/155/167: FFEIGACFL): 3.8315
Log2FC ([4]; degron residues 146/147/149/150/152/153/154/155/167: FIPVGAPFL): 3.937
Log2FC [4, 12]: 3.9835 and 3.984
Log2FC ([4]; degron residues 146/147/149/150/152/153/154/155/167: FWDVGANFL): 3.8903
Log2FC ([4]; degron residues 146/147/149/150/152/153/154/155/167: FWDVGAQFL): 3.8513
Log2FC ([4]; degron residues 146/147/149/150/152/153/154/155/167: FWEIGAAFL): 3.8306
Log2FC ([4]; degron residues 146/147/149/150/152/153/154/155/167: FWEIGAQFL): 3.9298 and 3.93
Log2FC ([4]; degron residues 146/147/149/150/152/153/154/155/167: FWEVGAAFL): 3.9041
Log2FC ([4]; degron residues 146/147/149/150/152/153/154/155/167: FWEVGAHFL): 3.9186
Log2FC ([4]; degron residues 146/147/149/150/152/153/154/155/167: FWEVGAKFL): 3.8571
Log2FC ([4]; degron residues 146/147/149/150/152/153/154/155/167: FWEVGANFL): 3.8564
Log2FC ([4]; degron residues 146/147/149/150/152/153/154/155/167: FWPVGANFL): 3.8155
Log2FC ([4]; degron residues 146/147/149/150/152/153/154/155/167: FWPVGAQFL): 3.9190
Log2FC ([4]; degron residues 146/147/149/150/152/153/154/155/167: FYEIGAKFL): 3.8391
Log2FC ([4]; degron residues 146/147/149/150/152/153/154/155/167: FYEIGATFL): 4.0154 and 4.054
Log2FC [4, 13]: 3.8457
Log2FC ([4]; degron residues 146/147/149/150/152/153/154/155/167: FYEVGANFL): 3.8762
Log2FC ([4]; degron residues 146/147/149/150/152/153/154/155/167: FYEVGASFL): 3.8615
Log2FC ([4]; degron residues 146/147/149/150/152/153/154/155/167: FYEVGATFL): 4.1392 and 4.14
Log2FC ([4]; degron residues 146/147/149/150/152/153/154/155/167: LYEIGFRCL): 3.9018
Dmax ([2]; 18 h, Fig 2B): 76%
degradation of endogenous IKZF1 [5]: did not induce degradation of endogenous IKZF1

O=C1CCC(N2C(=O)c3cccc(OCc4ccccc4)c3C2=O)C(=O)N1 (centres unmarked) [Compound 30]
Dmax ([2]; 18 h, Fig 2B): 85%

O=C1CCC(N2C(=O)c3cccc(OCc4cccnc4)c3C2=O)C(=O)N1 (centres unmarked) [Compound 31]
Dmax ([2]; 18 h, Fig 2B): 82%

Cc1ccccc1COc1cccc2c1C(=O)N(C1CCC(=O)NC1=O)C2=O (centres unmarked) [Compound 32]
Dmax ([2]; 18 h, Fig 2B): 65%

O=C1CCC(N2C(=O)c3cccc(NC(c4ccccc4)c4ccccc4)c3C2=O)C(=O)N1 (centres unmarked) [Compound 33]
Log2FC [4, 7]: -1.2556
logFC [4, 8]: -0.4744
logFC [4, 9]: -0.1939
logFC [4, 10]: -2.168
logFC [4, 11]: -2.426
Log2FC ([4]; degron residues 146/147/149/150/152/153/154/155/167: FGPVGAFFL): 3.1139
Log2FC ([4]; degron residues 146/147/149/150/152/153/154/155/167: FMEIGAAFL): 3.1949
Log2FC ([4]; degron residues 146/147/149/150/152/153/154/155/167: FMEIGAPFL): 3.1328
Log2FC ([4]; degron residues 146/147/149/150/152/153/154/155/167: FMEVGAPFL): 3.1157
Log2FC ([4]; degron residues 146/147/149/150/152/153/154/155/167: FMNIGAPFL): 3.2358 and 3.236
Log2FC ([4]; degron residues 146/147/149/150/152/153/154/155/167: FMPIGAPFL): 3.0896
Log2FC ([4]; degron residues 146/147/149/150/152/153/154/155/167: FMPVGAAFL): 3.0783
Log2FC ([4]; degron residues 146/147/149/150/152/153/154/155/167: FMPVGAPFL): 3.0869
Log2FC ([4]; degron residues 146/147/149/150/152/153/154/155/167: FRDIGAPFL): 3.3226 and 3.323
Log2FC ([4]; degron residues 146/147/149/150/152/153/154/155/167: FRDVGAPFL): 3.2095
Log2FC [4, 12]: 3.3123
Log2FC ([4]; degron residues 146/147/149/150/152/153/154/155/167: FREVGAPFL): 3.3928 and 3.393
Log2FC ([4]; degron residues 146/147/149/150/152/153/154/155/167: FRPVGAPFL): 3.2684 and 3.268
Log2FC ([4]; degron residues 146/147/149/150/152/153/154/155/167: FYEIGAQFL): 3.1346
Log2FC [4, 13]: 3.1049
Log2FC ([4]; degron residues 146/147/149/150/152/153/154/155/167: LCPIGFTCL): 3.1410
Log2FC ([4]; degron residues 146/147/149/150/152/153/154/155/167: LCPIGFYCL): 3.1590
Log2FC ([4]; degron residues 146/147/149/150/152/153/154/155/167: LYEIGFSCL): 3.0997
Log2FC ([4]; degron residues 146/147/149/150/152/153/154/155/167: LYEIGFTCL): 3.1905
Log2FC ([4]; degron residues 146/147/149/150/152/153/154/155/167: LYPIGFSCL): 3.0902
Dmax ([2]; 18 h, Fig 2B): 97%
degradation of endogenous IKZF1 [5]: modest degradation of IKZF1

O=C1CCC(N2C(=O)c3cccc(OC(c4ccccc4)c4ccccc4)c3C2=O)C(=O)N1 (centres unmarked) [Compound 34]
Dmax ([2]; 18 h, Fig 2B): 90%

O=C1CCC(N2C(=O)c3cccnc3C2=O)C(=O)N1 (centres unmarked) [Compound 35]
Dmax ([2]; 18 h, Fig 2B): 60%

O=C1CCC(N2C(=O)c3ccncc3C2=O)C(=O)N1 (centres unmarked) [Compound 36]
Dmax ([2]; 18 h, Fig 2B): 91%
